Measured values reported in article PMC10860121 (ACS infectious diseases, 2023).
Like-named read-outs stand apart in the source and are kept apart here.

Columns and labels:
[1] = tested on: P. falciparum Dd2; assay: In vitro antiplasmodial activity, Dd2, 72 h [3H]hypoxanthine incorporation; type: cell-based; conditions: Plasmodium falciparum, DD2, read-out: P. falciparum IC50 Dd2
[2] = tested on: P. falciparum K1; assay: In vitro antiplasmodial activity, K1, 72 h [3H]hypoxanthine incorporation; type: cell-based; conditions: Plasmodium falciparum, K1, read-out: P. falciparum IC50 K1
[3] = tested on: Chloroquine-sensitive NF54 P. falciparum isolate; assay: In vitro antiplasmodial activity, NF54; type: cell-based, Plasmodium falciparum
[4] = tested on: P. falciparum RF12; assay: In vitro antiplasmodial activity, RF12, 72 h [3H]hypoxanthine incorporation; type: cell-based; conditions: Plasmodium falciparum, read-out: P. falciparum IC50 RF12
[5] = tested on: P. falciparum TM90C2B; type: cell-based; conditions: Plasmodium falciparum, read-out: P. falciparum IC50 TM90C2B
[6] = In vitro intrinsic clearance in mouse liver microsomes; type: in vitro ADME
[7] = Chromatographic LogD7.4; type: physicochemical; conditions: pH 7.4; for chromatographic logD: gradient HPLC, Phenomenex Synergi Hydro-RP column; for gLogD7.4: chromatographically determined
[8] = In vitro intrinsic clearance in human liver microsomes; type: in vitro ADME; conditions: for microsomal CLint: human, liver microsomes, h CLint
[9] = Kinetic solubility at pH 6.5 by nephelometry; type: physicochemical; conditions: pH 6.5 phosphate buffer, 1% DMSO, solubility range by nephelometry
[10] = tested on: rat skeletal myoblast L6 cell line; assay: Cytotoxicity, growth inhibition of L6 cells; type: cell-based; conditions: read-out: L6 IC50, mean from n ≥ 2
[11] = Plasmodium falciparum, NF54, read-out: P. falciparum IC50, NF54, mean from n ≥ 2
[12] = read-out: P. falciparum IC50, NF54, mean from n ≥ 2

| Compound | microsomal CLint [6] [µL/min/mg] | IC50 [3, 11] [µM] | chromatographic logD [7] | microsomal CLint [8] [µL/min/mg] | other results |
| --- | --- | --- | --- | --- | --- |
| C[C@H]1[C@H](OC(=O)CCC(=O)O)O[C@@H]2O[C@@]3(C)CC[C@H]4[C@H](C)CC[C@@H]1[C@@]24OO3 [Artesunate, artesunate] |  |  |  |  | IC50 [1]: 0.0061 ± 0.0014 µM; IC50 [2]: 0.0028 ± 0.00064 µM; IC50 ([3]; Plasmodium falciparum, NF54, read-out: P. falciparum IC50 NF54, Mean ± SD, n ≥ 2, 72 h [3H]hypoxanthine incorporation assay): 0.006 ± 0.0009 µM; IC50 [4]: 0.0068 ± 0.0014 µM; IC50 [5]: 0.0074 ± 0.0013 µM |
| O=C1CCOc2ccccc2C(=O)Nc2ccccc21 [Compound 7, 6,7-Dihydro-8H-dibenzo[b,f][1,5]oxazecine-8,14-(13H)-dione] |  |  |  |  | Kinetic Sol6.5 [9]: >100 µg/mL; IC50 [3, 12]: 21 µM; fold less potent than 2 (antiplasmodial) ([3]; relative to compound 2): > 100 fold; IC50 [10]: 31 µM; gLogD7.4 [7]: 2.0 |
| O=C1CCc2ccccc2CC(=O)c2ccccc2N1 [Compound 8, 8,13-Dihydrodibenzo[b,f]azecine-6,14(5H,7H)-dione] | 18 | 6.2 | 2.1 | < 7 | fold less potent than 2 (antiplasmodial) ([3]; relative to compound 2): 33 fold |
| O=C1CCc2ccccc2C(=O)c2ccccc2N1 [Compound 9, 7,8-Dihydro-5H-dibenzo[b,e]azonine-6,13-dione] | 14 | 4.6 | 1.9 | 7 |  |
| O=C1Nc2ccccc2C(=NO)CCc2ccccc21 [Compound 10, 13-(Hydroxyimino)-5,11,12,13-tetrahydro-6H-dibenzo[b,g]azonin-6-one] | 76 | > 190 | 1.8 | 22 |  |
| CO/N=C1\CCc2ccccc2C(=O)Nc2ccccc21 [Compound 11, (E)-13-(Methoxyimino)-5,11,12,13-tetrahydro-6H-dibenzo[b,g]azonin-6-one] | 54 | 95 | 2.5 | 11 |  |
| O=C1CCc2ccccc2C(=O)N2CCCc3cccc1c32 [Compound 15, 2,3,8,9-Tetrahydro-1H-benzo[7,8]azonino[3,2,1-i,j]-quinoline-7,14-dione] |  |  |  |  | Kinetic Sol6.5 [9]: 25 to 50 µg/mL; m CLint [6]: > 870 μL/min/mg protein; IC50 [3, 12]: 100 µM; IC50 [10]: 83 µM; gLogD7.4 [7]: 2.9; h CLint [8]: 310 μL/min/mg protein |
| CS(=O)(=O)c1ccc2c(c1)C(=O)CCc1ccccc1C(=O)N2 [Compound 23, 2-(Methylsulfonyl)-11,12-dihydro-5H-dibenzo[b,g]-azonine-6,13-dione] | 19 | 5.3 | 1.6 | 46 |  |
| O=C1Nc2ccc(OC(F)(F)F)cc2C(=O)CCc2ccccc21 [Compound 26, 2-(Trifluoromethoxy)-11,12-dihydro-5H-dibenzo-[b,g]azonine-6,13-dione] | 110 | 0.0042 | 3.1 | 240 | in vitro selectivity index ([3]; antiplasmodial selectivity, L6 cytotoxicity vs P. falciparum): > 10,000; gLogD7.4 [7]: > 3 |
| O=C1Nc2ncccc2C(=O)CCc2ccccc21 [Compound 29, 6,7-Dihydro-5H-benzo[g]pyrido[2,3-b]azonine-5,12-(13H)-dione] |  |  |  |  | Kinetic Sol6.5 [9]: >100 µg/mL; m CLint [6]: 26 μL/min/mg protein; IC50 [3, 12]: 8.9 µM; IC50 [10]: 60 µM; gLogD7.4 [7]: 1.2; h CLint [8]: 13 μL/min/mg protein |
| O=C1CCc2cccnc2C(=O)Nc2ccccc21 [Compound 31, 5,6-Dihydro-7H-benzo[b]pyrido[3,2-g]azonine-7,13-(12H)-dione] |  |  |  |  | Kinetic Sol6.5 [9]: >100 µg/mL; m CLint [6]: 10 μL/min/mg protein; IC50 [3, 12]: 11 µM; IC50 [10]: 190 µM; gLogD7.4 [7]: 0.9; h CLint [8]: 11 μL/min/mg protein |
| N#Cc1ccc2c(c1)CCC(=O)c1ccccc1NC2=O [Compound 33, 6,13-Dioxo-6,11,12,13-tetrahydro-5H-dibenzo[b,g]-azonine-9-carbonitrile] | 160 | 0.39 | 2 | < 7 |  |
| O=C1Nc2ccccc2C(=O)CCc2ccc(O)cc21 [Compound 37, 8-Hydroxy-11,12-dihydro-5H-dibenzo[b,g]azonine-6,13-dione] | 36 | 1.1 | 1.2 | 7 |  |

Further compounds by falling IC50 [3, 11], results first:

| microsomal CLint [6] [µL/min/mg] | IC50 [3, 11] [µM] | chromatographic logD [7] | microsomal CLint [8] [µL/min/mg] | Compound | other results |
| --- | --- | --- | --- | --- | --- |
| < 7 | 160 | < 0 | 12 | O=C(O)c1ccc2c(c1)C(=O)CCc1ccccc1C(=O)N2 [Compound 19, 6,13-Dioxo-6,11,12,13-tetrahydro-5H-dibenzo[b,g]-azonine-2-carboxylic Acid] |  |
| 81 | 100 | 2.6 | 62 | O=C1Nc2ccccc2CCCc2ccccc21 [Compound 13, 5,11,12,13-Tetrahydro-6H-dibenzo[b,g]azonin-6-one] |  |
| 16 | 100 | 3.7 | 14 | O=C1Oc2ccccc2C(=O)CCc2ccccc21 [Compound 16, 11,12-Dihydrodibenzo[b,g]oxonine-6,13-dione] |  |
| 27 | 83 | 1.5 | 11 | O=C1Nc2ccccc2C(O)CCc2ccccc21 (stereo not drawn) [Compound 12, 13-hydroxy-5,11,12,13-tetrahydro-6H-dibenzo[b,g]azonin-6-one] |  |
| 220 | 77 | 2.4 | 110 | CN1C(=O)c2ccccc2CCC(=O)c2ccccc21 [Compound 14, 5-Methyl-11,12-dihydro-5H-dibenzo[b,g]azonine-6,13-dione] |  |
| 10 | 24 | 0.8 | < 7 | NC(=O)c1ccc2c(c1)C(=O)CCc1ccccc1C(=O)N2 [Compound 20, 6,13-Dioxo-6,11,12,13-tetrahydro-5H-dibenzo[b,g]-azonine-2-carboxamide] |  |
| 84 | 15 | 1.1 | 61 | O=C1Nc2ccccc2C(=O)CCc2cc(O)ccc21 [Compound 34, 9-Hydroxy-11,12-dihydro-5H-dibenzo[b,g]azonine-6,13-dione] |  |
| 18 | 9.4 | 0.9 | 19 | O=C1CCc2ncccc2C(=O)Nc2ccccc21 [Compound 30, 12,13-Dihydro-5H-benzo[b]pyrido[2,3-g]azonine-5,11(6H)-dione] |  |
| 15 | 7.8 | 1.3 | 11 | O=C1Nc2ccc(C(=O)N3CCOCC3)cc2C(=O)CCc2ccccc21 [Compound 21, 2-(Morpholine-4-carbonyl)-11,12-dihydro-5H-dibenzo[b,g]azonine-6,13-dione] |  |
| 60 | 5.1 | 1.3 | 16 | O=C1CCc2c(O)cccc2C(=O)Nc2ccccc21 [Compound 35, 10-Hydroxy-11,12-dihydro-5H-dibenzo[b,g]azonine-6,13-dione] |  |
| 43 | 1.3 | 2.1 | 13 | O=C1Nc2ccccc2C(=O)CCc2ccc(F)cc21 [Compound 36, 8-Fluoro-11,12-dihydro-5H-dibenzo[b,g]azonine-6,13-dione] |  |
| 31 | 0.75 | 1.9 | 14 | O=C1Nc2ccccc2C(=O)CCCc2ccccc21 [Compound 6, 6,7-Dihydrodibenzo[b,h]azecine-8,14(5H,13H)-dione] | fold less potent than 2 (antiplasmodial) ([3]; relative to compound 2): 4 fold |
| 20 | 0.7 | 2.1 | 23 | N#Cc1ccc2c(c1)C(=O)CCc1ccccc1C(=O)N2 [Compound 22, 6,13-Dioxo-6,11,12,13-tetrahydro-5H-dibenzo[b,g]-azonine-2-carbonitrile] | fold less potent than 2 (antiplasmodial) ([3]; relative to compound 2): 3.7 fold |
| 74 | 0.056 | 2.2 | 38 | O=C1Nc2ccc(F)cc2C(=O)CCc2ccccc21 [Compound 24, 2-Fluoro-11,12-dihydro-5H-dibenzo[b,g]azonine-6,13-dione] |  |
| 440 | 0.037 | 2.1 | 23 | COc1ccc2c(c1)C(=O)CCc1ccccc1C(=O)N2 [Compound 17, 2-Methoxy-11,12-dihydro-5H-dibenzo[b,g]azonine-6,13-dione] | fold more potent than 2 (antiplasmodial) ([3]; relative to compound 2): roughly 5 fold |
| 79 | 0.0094 | 3 | 240 | O=C1Nc2ccc(C(F)(F)F)cc2C(=O)CCc2ccccc21 [Compound 25, 2-(Trifluoromethyl)-11,12-dihydro-5H-dibenzo[b,g]-azonine-6,13-dione] |  |
| 71 | 0.0042 | 3.3 | 190 | O=C1Nc2ccc(S(F)(F)(F)(F)F)cc2C(=O)CCc2ccccc21 [Compound 27, 2-(Pentafluoro-λ^6-sulfaneyl)-11,12-dihydro-5H-dibenzo[b,g]azonine-6,13-dione] | gLogD7.4 [7]: > 3 |
